Data on 15 compounds can be found in US20240190880A1 (THE REGENTS OF THE UNIVERSITY OF MICHIGAN, priority 2021, published 2024).

Where only a bound is given, the exact number is not on record here.

The target of the first test is T1, ER (Homo sapiens, UniProt P03372).
T1 construct: host or cells: T47D and MCF7 human breast cancer cells
T1 sequence (P03372 1-595): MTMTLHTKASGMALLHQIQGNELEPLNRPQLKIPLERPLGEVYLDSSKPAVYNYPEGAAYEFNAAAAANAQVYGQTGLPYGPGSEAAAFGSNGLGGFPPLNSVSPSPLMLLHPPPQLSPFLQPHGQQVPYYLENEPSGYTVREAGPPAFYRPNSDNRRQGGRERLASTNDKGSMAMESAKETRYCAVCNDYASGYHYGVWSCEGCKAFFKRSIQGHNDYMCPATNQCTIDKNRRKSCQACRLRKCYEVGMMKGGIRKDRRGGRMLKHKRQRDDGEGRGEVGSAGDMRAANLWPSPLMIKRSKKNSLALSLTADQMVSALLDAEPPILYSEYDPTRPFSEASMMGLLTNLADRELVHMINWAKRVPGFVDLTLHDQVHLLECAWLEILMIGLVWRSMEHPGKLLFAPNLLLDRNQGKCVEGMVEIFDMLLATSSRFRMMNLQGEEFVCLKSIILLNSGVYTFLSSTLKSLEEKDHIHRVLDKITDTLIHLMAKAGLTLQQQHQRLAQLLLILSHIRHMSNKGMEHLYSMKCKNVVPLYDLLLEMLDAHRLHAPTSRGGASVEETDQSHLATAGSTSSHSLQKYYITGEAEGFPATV
Kind of test: ER degradation activity, in-cell western blot analysis in T47D cells. In kind it is cell-based. The note with it: 16 hours, Table A does not say which cell line (T47D or MCF7), read-out: Potency (DC50). The essentials:
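Read-out is near-infrared fluorescence from an in-cell western, expressed as ER percentage relative to untreated and DMSO controls taken as 100%. T47D breast cancer cells received compound for 16 h in 0.5% DMSO.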
Broadly, the DC50 is the concentration giving 50% degradation. Turning to `C[C@H]1Cc2c([nH]c3ccccc23)[C@H](c2c(F)cc(N3CC4(CCN(C(=O)CN5Cc6cc7c(cc6C5)C(=O)N(C5CCC(=O)NC5=O)C7=O)CC4)C3)cc2F)N1CC(F)F` (stereo in doubt) [E 84, 6-(2-(2-(4-((1S,3S)-2-(2,2-difluoroethyl)-3-methyl-2,3,4,9-tetrahydro-1H-pyrido[3,4-b]indol-1-yl)-3,5-difluorophenyl)-2,7-diazaspiro[3.5]nonan-7-yl)-2-oxoethyl)-2-(2,6-dioxopiperidin-3-yl)-6,7-dihydropyrrolo[3,4-f]isoindole-1,3(2H,5H)-dione], the DC50 is below 10 nM.

On to `C[C@@H]1Cc2c([nH]c3ccccc23)[C@@H](c2c(F)cc(N3CC[C@@H](CN4CCC(C(=O)N5Cc6cc7c(cc6C5)C(=O)N(C5CCC(=O)NC5=O)C7)CC4)C3)cc2F)N1CC(F)F` (stereo partly drawn) [E 90, 3-(6-(1-(((S)-1-(4-((1R,3R)-2-(2,2-difluoroethyl)-3-methyl-2,3,4,9-tetrahydro-1H-pyrido[3,4-b]indol-1-yl)-3,5-difluorophenyl)pyrrolidin-3-yl)methyl)piperidine-4-carbonyl)-1-oxo-3,5,6,7-tetrahydropyrrolo[3,4-f]isoindol-2(1H)-yl)piperidine-2,6-dione], for which the DC50 was below 10 nM.

As to `O=C1CCC(N2C(=O)c3cc4c(cc3C2=O)CN(C(=O)C2CCN(CC3CCN(c5ccc([C@@H]6c7ccc(O)cc7CC[C@@H]6c6ccccc6)cc5)CC3)CC2)C4)C(=O)N1` (stereo partly drawn) [E 205, 2-(2,6-dioxopiperidin-3-yl)-6-(1-((1-(4-((1R,2S)-6-hydroxy-2-phenyl-1,2,3,4-tetrahydronaphthalen-1-yl)phenyl)piperidin-4-yl)methyl)piperidine-4-carbonyl)-6,7-dihydropyrrolo[3,4-f]isoindole-1,3(2H,5H)-dione], the DC50 was above 100 nM.

For `O=C1CCC(N2C(=O)c3cc4c(cc3C2=O)CN(CC2(F)CCN(C(=O)C3CN(c5ccc([C@@H]6c7ccc(O)cc7CC[C@@H]6c6ccccc6)cc5)C3)CC2)C4)C(=O)N1` (stereo partly drawn) [E 199, 2-(2,6-dioxopiperidin-3-yl)-6-((4-fluoro-1-(1-(4-((1R,2S)-6-hydroxy-2-phenyl-1,2,3,4-tetrahydronaphthalen-1-yl)phenyl)azetidine-3-carbonyl)piperidin-4-yl)methyl)-6,7-dihydropyrrolo[3,4-f]isoindole-1,3(2H,5H)-dione], the DC50 was above 100 nM.

Turning to `C[C@@H]1Cc2c([nH]c3ccccc23)[C@@H](c2c(F)cc(N3CC[C@@H](CN4CCC(C(=O)N5Cc6cc7c(cc6C5)C(=O)N(C5CCC(=O)NC5=O)C7=O)CC4)C3)cc2F)N1CC(F)F` (stereo partly drawn) [E 91, 6-(1-(((S)-1-(4-((1R,3R)-2-(2,2-difluoroethyl)-3-methyl-2,3,4,9-tetrahydro-1H-pyrido[3,4-b]indol-1-yl)-3,5-difluorophenyl)pyrrolidin-3-yl)methyl)piperidine-4-carbonyl)-2-(2,6-dioxopiperidin-3-yl)-6,7-dihydropyrrolo[3,4-f]isoindole-1,3(2H,5H)-dione], the DC50 is below 10 nM.

For `C[C@@H]1Cc2c([nH]c3ccccc23)[C@@H](c2c(F)cc(N3CC(C(=O)N4CCC(CN5Cc6cc7c(cc6C5)C(=O)N(C5CCC(=O)NC5=O)C7=O)CC4)C3)cc2F)N1CC(F)F` (stereo partly drawn) [E 237, 6-((1-(1-(4-((1R,3R)-2-(2,2-difluoroethyl)-3-methyl-2,3,4,9-tetrahydro-1H-pyrido[3,4-b]indol-1-yl)-3,5-difluorophenyl)azetidine-3-carbonyl)piperidin-4-yl)methyl)-2-(2,6-dioxopiperidin-3-yl)-6,7-dihydropyrrolo[3,4-f]isoindole-1,3(2H,5H)-dione], the DC50 is above 100 nM.

As to `O=C1CCC(N2C(=O)c3cc4c(cc3C2=O)CN(CC2CCN(C(=O)C3CN(c5ccc([C@@H]6c7ccc(O)cc7CC[C@@H]6c6ccccc6)cc5)C3)CC2)C4)C(=O)N1` (mixture of isomers) [E 156, Rac-2-(2,6-dioxopiperidin-3-yl)-6-((1-(1-(4-((1R,2S)-6-hydroxy-2-phenyl-1,2,3,4-tetrahydronaphthalen-1-yl)phenyl)azetidine-3-carbonyl)piperidin-4-yl)methyl)-6,7-dihydropyrrolo[3,4-f]isoindole-1,3(2H,5H)-dione], the DC50 is 10 to 100 nM.

Regarding `O=C1CCC(N2Cc3cc4c(cc3C2=O)CN(C(=O)C2CCC(NC3CN(c5ccc([C@@H]6c7ccc(O)cc7CC[C@@H]6c6ccccc6)cc5)C3)CC2)C4)C(=O)N1` (stereo partly drawn) [E 359, 3-(6-(4-((1-(4-((1R,2S)-6-hydroxy-2-phenyl-1,2,3,4-tetrahydronaphthalen-1-yl)phenyl)azetidin-3-yl)amino)cyclohexane-1-carbonyl)-1-oxo-3,5,6,7-tetrahydropyrrolo[3,4-f]isoindol-2(1H)-yl)piperidine-2,6-dione], the DC50 lay within 10 to 100 nM.

Consider `O=C1CCC(N2C(=O)c3cc4c(cc3C2=O)CN(C(=O)CN2CC3(C2)CN(c2ccc(C5=C(c6ccc(F)cc6)CCCc6cc(O)ccc65)cc2)C3)C4)C(=O)N1` (stereo not drawn) [E 49, 2-(2,6-dioxopiperidin-3-yl)-6-(2-(6-(4-(8-(4-fluorophenyl)-3-hydroxy-6,7-dihydro-5H-benzo[7]annulen-9-yl)phenyl)-2,6-diazaspiro[3.3]heptan-2-yl)acetyl)-6,7-dihydropyrrolo[3,4-f]isoindole-1,3(2H,5H)-dione], for which the DC50 was in the range of 10 to 100 nM.

On to `O=C1CCC(N2C(=O)c3cc4c(cc3C2=O)CN(C[C@H]2CC[C@@H](N3CC(Nc5ccc([C@@H]6c7ccc(O)cc7CC[C@@H]6c6ccccc6)cc5)C3)CC2)C4)C(=O)N1` (stereo partly drawn) [E 375, 2-(2,6-dioxopiperidin-3-yl)-6-(((1S,4s)-4-(3-((4-((1R,2S)-6-hydroxy-2-phenyl-1,2,3,4-tetrahydronaphthalen-1-yl)phenyl)amino)azetidin-1-yl)cyclohexyl)methyl)-6,7-dihydropyrrolo[3,4-f]isoindole-1,3(2H,5H)-dione], for which the DC50 is above 100 nM.

Take `O=C1CCC(N2C(=O)c3cc4c(cc3C2=O)CN(C(=O)CN2CCC3(CC2)CCN(c2ccc([C@@H]5c6ccc(O)cc6CC[C@@H]5c5ccccc5)cc2)CC3)CC4)C(=O)N1` (mixture of isomers) [E 161, rac-2-(2,6-dioxopiperidin-3-yl)-6-(2-(9-(4-((1R,2S)-6-hydroxy-2-phenyl-1,2,3,4-tetrahydronaphthalen-1-yl)phenyl)-3,9-diazaspiro[5.5]undecan-3-yl)acetyl)-5,6,7,8-tetrahydro-1H-pyrrolo[3,4-g]isoquinoline-1,3(2H)-dione]: the DC50 is above 100 nM.

The test is the same for the next values; noted with them: compounds 16 hours, Table A does not say whether T47D or MCF7, read-out: Potency (DC50).
As for `C[C@@H]1Cc2cc(O)ccc2[C@@H](c2c(F)cc(C(=O)N3CCC4(CC3)CC(CN3Cc5cc6c(cc5C3)C(=O)N(C3CCC(=O)NC3=O)C6=O)C4)cc2F)N1CC(F)F` (stereo partly drawn) [E 465, 6-((7-(4-((1S,3R)-2-(2,2-difluoroethyl)-6-hydroxy-3-methyl-1,2,3,4-tetrahydroisoquinolin-1-yl)-3,5-difluorobenzoyl)-7-azaspiro[3.5]nonan-2-yl)methyl)-2-(2,6-dioxopiperidin-3-yl)-6,7-dihydropyrrolo[3,4-f]isoindole-1,3(2H,5H)-dione], the DC50 was above 100 nM.

On to `O=C1CCC(N2Cc3cc4c(cc3C2=O)C(=O)N(CC2CN(CC3CCN(c5ccc([C@@H]6c7ccc(O)cc7CC[C@@H]6c6ccccc6)cc5)CC3)C2)C4)C(=O)N1` (stereo partly drawn) [E 508, 2-(2,6-dioxopiperidin-3-yl)-6-((1-((1-(4-((1R,2S)-6-hydroxy-2-phenyl-1,2,3,4-tetrahydronaphthalen-1-yl)phenyl)piperidin-4-yl)methyl)azetidin-3-yl)methyl)-2,3,5,6-tetrahydropyrrolo[3,4-f]isoindole-1,7-dione], for which the DC50 was above 100 nM.

For the compound `C[C@@H]1Cc2c(ccc3[nH]ncc23)[C@@H](c2c(F)cc(C3=CCC(C(=O)N4CCC(N5Cc6cc7c(cc6C5)C(=O)N(C5CCC(=O)NC5=O)C7=O)CC4)CC3)cc2F)N1CC(F)F` (mixture of isomers) [E 468, 6-(1-(4′-((6S,8R)-7-(2,2-difluoroethyl)-8-methyl-6,7,8,9-tetrahydro-3H-pyrazolo[4,3-f]isoquinolin-6-yl)-3′,5′-difluoro-2,3,4,5-tetrahydro-[1,1′-biphenyl]-4-carbonyl)piperidin-4-yl)-2-(2,6-dioxopiperidin-3-yl)-6,7-dihydropyrrolo[3,4-f]isoindole-1,3(2H,5H)-dione], the DC50 was 10 to 100 nM.

In the case of `C[C@@H]1Cc2c([nH]c3ccccc23)[C@@H](c2ccc(C3=CCC(C(=O)N4CCC(N5Cc6cc7c(cc6C5)C(=O)N(C5CCC(=O)NC5=O)C7=O)CC4)CC3)cc2F)N1CC(C)(F)F` (stereo partly drawn) [E 482, 6-(1-(4′-((1R,3R)-2-(2,2-difluoropropyl)-3-methyl-2,3,4,9-tetrahydro-1H-pyrido[3,4-b]indol-1-yl)-3′-fluoro-2,3,4,5-tetrahydro-[1,1′-biphenyl]-4-carbonyl)piperidin-4-yl)-2-(2,6-dioxopiperidin-3-yl)-6,7-dihydropyrrolo[3,4-f]isoindole-1,3(2H,5H)-dione], the DC50 was above 100 nM.
